Assay results: article PMC5462828 (Scientific Reports, 2017)

T1: RXFP1 stably expressed in HEK293 cells (HEK-RXFP1) (human, UniProt Q9HBX9 1-757)
T1 sequence (looked up): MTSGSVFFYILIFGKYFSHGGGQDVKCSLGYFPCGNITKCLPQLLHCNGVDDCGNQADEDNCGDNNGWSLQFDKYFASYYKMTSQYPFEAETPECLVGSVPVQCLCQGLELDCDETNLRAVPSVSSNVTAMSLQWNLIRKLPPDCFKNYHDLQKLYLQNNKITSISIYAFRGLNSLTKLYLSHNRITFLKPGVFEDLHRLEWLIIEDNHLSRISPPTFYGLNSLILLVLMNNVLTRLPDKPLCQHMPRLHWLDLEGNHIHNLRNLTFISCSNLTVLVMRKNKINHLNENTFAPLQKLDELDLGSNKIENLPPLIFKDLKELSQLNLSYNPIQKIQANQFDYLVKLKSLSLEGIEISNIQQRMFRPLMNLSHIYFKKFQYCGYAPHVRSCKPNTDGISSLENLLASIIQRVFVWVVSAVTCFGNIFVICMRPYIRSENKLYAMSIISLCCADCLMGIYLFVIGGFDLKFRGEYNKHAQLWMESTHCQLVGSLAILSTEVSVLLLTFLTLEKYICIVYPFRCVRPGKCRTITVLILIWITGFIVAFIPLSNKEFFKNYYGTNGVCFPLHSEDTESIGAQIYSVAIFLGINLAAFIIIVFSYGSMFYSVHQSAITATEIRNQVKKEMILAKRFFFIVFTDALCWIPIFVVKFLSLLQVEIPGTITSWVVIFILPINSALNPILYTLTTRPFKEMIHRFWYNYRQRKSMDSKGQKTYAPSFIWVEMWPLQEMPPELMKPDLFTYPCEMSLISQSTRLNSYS


Experiments:
[1] = target: RXFP1 stably expressed in HEK293 cells (HEK-RXFP1) (human) (UniProt Q9HBX9); test: radioligand binding; kinetics on HEK-RXFP1 cells in 96-well plates, without ML290: association with 100 pM 125I-H2 relaxin over time; dissociation after 90 min equilibration, started with 200 nM unlabelled H2 relaxin
[2] = target: RXFP1 stably expressed in HEK293 cells (HEK-RXFP1) (human) (UniProt Q9HBX9); test: radioligand binding; kinetics on HEK-RXFP1 cells in 96-well plates, with ML290 (1 μM): association with 100 pM 125I-H2 relaxin over time; dissociation after 90 min equilibration, started with 200 nM unlabelled H2 relaxin
[3] = test system: ML290-mediated cAMP accumulation; test: Effect of signalling pathway inhibitors on ML290-mediated cAMP accumulation in human primary vascular cells; assay type: cell-based; settings: NF449 10 μM, NF023 10 μM, mSIRK 5 μM, gallein 50 μM, Wortmannin 100 nM, 30 min
Description: (§1) cAMP and cGMP accumulation was determined as previously described, [16]. Briefly, HEK293 cells were plated in 96-well plates (5 × 10^4 cells/well) and human primary cells were plated into 24-well plates (1 × 10^5 cells/well) and grown overnight to achieve a confluent monolayer. Prior to stimulation, HEK cells were serum-starved in DMEM containing 0.5% FBS v/v and primary cells were serum-starved in M199 medium for 4–6 hours. […] Levels of cAMP and cGMP were detected according to the manufacturer’s instructions (Perkin-Elmer, Australia).

[4] = test system: ML290-mediated cGMP accumulation; test: Effect of signalling pathway inhibitors on ML290-mediated cGMP accumulation in human primary vascular cells; assay type: cell-based; settings: NF449 10 μM, NF023 10 μM, mSIRK 5 μM, gallein 50 μM, Wortmannin 100 nM, 30 min
Description: as §1

p-Smad2 = test: Smad2 phosphorylation assay in human cardiac fibroblasts; assay type: cell-based; settings: HCFs; TGF-β1 2 ng/ml alone; 72 hours
Description: (§2) Cells were serum-starved in M199 medium for 24 hours prior sample collection. Cells were used between passages 1–4, while all experiments were performed four separate times in duplicate. Levels of p-Smad2 and p-Smad3 were detected using Sure-fire kits according to the manufacturer’s instructions (Perkin-Elmer, Australia).

p-Smad3 = test: Smad3 phosphorylation assay in human cardiac fibroblasts; assay type: cell-based; settings: HCFs; TGF-β1 2 ng/ml alone; 72 hours
Description: as §2

[5] = target: T1, RXFP1 stably expressed in HEK293 cells …; test: cell-based or functional assay
[6] = target: T1, RXFP1 stably expressed in HEK293 cells …; test: radioligand binding; competition on HEK-RXFP1 cells: 100 pM 125I-H2 relaxin against increasing unlabelled H2 relaxin, vehicle (0.1% DMSO), 90 min, room temperature; settings: one partner purified
[7] = target: T1, RXFP1 stably expressed in HEK293 cells …; test: radioligand binding; competition on HEK-RXFP1 cells: 100 pM 125I-H2 relaxin against increasing unlabelled H2 relaxin, in the presence of ML290 (1 μM), 90 min, room temperature; settings: one partner purified

Molecule	ML290-mediated cAMP accumulation after inhibitor ([3]; HCAECs)	ML290-mediated cAMP accumulation after inhibitor ([3]; HUASMCs, L9A 5 μM)	ML290-mediated cAMP accumulation after inhibitor ([3]; HUVECs)	ML290-mediated cAMP accumulation after inhibitor ([3]; HUVSMCs, L9A 5 μM)	ML290-mediated cGMP accumulation after inhibitor ([4]; HCAECs)	ML290-mediated cGMP accumulation after inhibitor ([4]; HUASMCs, L9A 5 μM)	ML290-mediated cGMP accumulation after inhibitor ([4]; HUVECs)	ML290-mediated cGMP accumulation after inhibitor ([4]; HUVSMCs, L9A 5 μM)	other results
125I-H2 relaxin (ligand)	–	–	–	–	–	–	–	–	koff [1]: 0.000833 s⁻¹; kon [1]: 3.5e+06 M⁻¹ s⁻¹; koff [2]: 0.000667 s⁻¹; kon [2]: 4.67e+06 M⁻¹ s⁻¹
O=C(Nc1cccc(C(=O)Nc2ccc(S(=O)(=O)O)c3cc(S(=O)(=O)O)cc(S(=O)(=O)O)c23)c1)Nc1cccc(C(=O)Nc2ccc(S(=O)(=O)O)c3cc(S(=O)(=O)O)cc(S(=O)(=O)O)c23)c1 [NF023]	unaffected	no effect	unaffected	no effect	not significantly affected	no effect	not significantly affected	no effect	–
O=C(Nc1cc(C(=O)Nc2ccc(S(=O)(=O)O)cc2S(=O)(=O)O)cc(C(=O)Nc2ccc(S(=O)(=O)O)cc2S(=O)(=O)O)c1)Nc1cc(C(=O)Nc2ccc(S(=O)(=O)O)cc2S(=O)(=O)O)cc(C(=O)Nc2ccc(S(=O)(=O)O)cc2S(=O)(=O)O)c1 [NF449]	0.8 ± 3.9 % response to 50 μM forskolin	6.0 ± 7.3 % response to 50 μM forskolin	0.8 ± 5.7 % response to 50 μM forskolin	4.7 ± 2.5 % response to 50 μM forskolin	11.9 ± 5.3 % of the response to DEA	24.3 ± 5.7%	22.3 ± 3.0 % of the response to DEA	18.8 ± 3.7%	–
COC[C@H]1OC(=O)c2coc3c2[C@@]1(C)C1=C(C3=O)[C@@H]2CCC(=O)[C@@]2(C)C[C@H]1OC(C)=O [Wortmannin]	unaffected	7.2 ± 2.2 % response to 50 μM forskolin	unaffected	6.4 ± 2.2 % response to 50 μM forskolin	not significantly affected	21.8 ± 3.4%	not significantly affected	14.3 ± 3.3%	–
O=C1OC2(c3ccccc31)c1ccc(O)c(O)c1Oc1c2ccc(O)c1O [gallein]	unaffected	5.2 ± 1.4 % response to 50 μM forskolin	unaffected	3.2 ± 3.4 % response to 50 μM forskolin	not significantly affected	15.6 ± 2.6%	not significantly affected	14.3 ± 3.8%	–
TGF-β1: pro-fibrotic cytokine used to induce Smad2 and Smad3 phosphorylation	–	–	–	–	–	–	–	–	increase in p-Smad2 compared to vehicle-treated samples (p-Smad2): 2.21 ± 0.17 fold; increase in p-Smad3 compared to vehicle-treated samples (p-Smad3): 1.41 ± 0.07 fold
Human gene 2 relaxin (H2 relaxin) (ligand) chain 1: QLYSALANKCCHVGCTKRSLARFC chain 2: DSWMEEVIKLCGRELVRAQIAICGMSTWS	–	–	–	–	–	–	–	–	cAMP accumulation in HCAEC (endogenous RXFP1), pEC50 (efficacy in brackets as % of forskolin 50 μM) [5]: 8.9; cGMP accumulation in HCAEC (endogenous RXFP1), pEC50 (efficacy in brackets as % of DEA) [5]: 9.2; cGMP accumulation in HCF (endogenous RXFP1), 40 min, pEC50 (efficacy in brackets as % of DEA) [5]: 9.6; p-ERK1/2 in HEK-RXFP1 cells, 5 min, pEC50 (efficacy in brackets as % of 10% FBS) [5]: 9.5; p-p38MAPK in HEK-RXFP1 cells, 15 min, pEC50 (efficacy in brackets as % of sorbitol) [5]: 8.9; pKi [6]: 9.5; pKi [7]: 9.7
